Test results as given in ChEMBL document CHEMBL1201862, “PubChem BioAssay data set” (2004).
Calls of active or inactive are those of the source.

Tests used:
[1] = system: Streptococcus sp. 'group A'; assay: growth inhibition of control SK(-) GAS strain, dose response, counter-screen for streptokinase expression inhibitor project, luminescence, kanamycin, BacTiterGlo, confirmation (AID 1900); format: functional, organism-based
Streptokinase A = target: T1, Streptokinase A (Streptococcus pyogenes serotype M1, UniProt P10520); assay: S. pyogenes streptokinase expression inhibitors, potency, dose response, plasminogen activation absorbance, OD405 (AID 1914); format: functional, Streptococcus pyogenes M1 GAS;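 further: secreted streptokinase activity via plasminogen activation per viability signal from cell pellet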
T1 sequence (P10520 whole entry): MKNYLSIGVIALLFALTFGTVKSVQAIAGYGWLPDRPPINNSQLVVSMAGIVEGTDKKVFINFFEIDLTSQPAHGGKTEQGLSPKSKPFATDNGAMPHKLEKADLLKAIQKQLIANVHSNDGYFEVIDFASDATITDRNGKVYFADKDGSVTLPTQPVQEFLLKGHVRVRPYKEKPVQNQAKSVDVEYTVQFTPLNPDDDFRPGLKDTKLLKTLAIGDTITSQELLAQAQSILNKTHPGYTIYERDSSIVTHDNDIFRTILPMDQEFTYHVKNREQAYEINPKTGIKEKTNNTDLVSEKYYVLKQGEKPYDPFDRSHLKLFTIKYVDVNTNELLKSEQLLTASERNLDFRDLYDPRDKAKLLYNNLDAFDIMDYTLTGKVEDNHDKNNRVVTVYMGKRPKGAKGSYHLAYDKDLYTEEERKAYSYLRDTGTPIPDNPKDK

Streptococcus = assay: Group A Streptococcus viability loss, dose response, counter-screen for streptokinase expression inhibitor project, luminescence, BacTiterGlo (AID 1915); format: functional, organism-based;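 further: potency for reduction of bacterial viability or growth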
[2] = target: T2, Probable nicotinate-nucleotide adenylyltransferase (Staphylococcus aureus (strain N315), UniProt P65502); format: functional, Staphylococcus aureus subsp. aureus N315;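 on IC50 Mean: confirmatory dose-response retesting of NadD inhibitor hits first found in an ultra-high-throughput screen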
T2 sequence (P65502 whole entry): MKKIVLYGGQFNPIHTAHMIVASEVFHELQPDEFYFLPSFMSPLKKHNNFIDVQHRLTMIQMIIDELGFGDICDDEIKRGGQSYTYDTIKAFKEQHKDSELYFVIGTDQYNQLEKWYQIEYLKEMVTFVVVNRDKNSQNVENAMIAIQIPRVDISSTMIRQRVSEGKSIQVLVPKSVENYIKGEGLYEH

[3] = target: T2, Probable nicotinate-nucleotide adenylyltransferase; format: functional, Staphylococcus aureus subsp. aureus N315; conditions: read-out: IC50_Mean
[4] = half-maximal inhibitory concentration for glucagon-like peptide-1 release, STC-1 cell line, dose-response (AID 1117345); format: functional, cell-based
[5] = Glucagon-like peptide 1 release potency, NCI-H716 cell line, dose-response, half-maximal inhibitory concentration (AID 1117344); format: functional, cell-based
[6] = P. falciparum 3D7-ScDHODH growth inhibitors, dose response, SYBR Green, dry powder samples (AID 1159570); format: functional, cell-based;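 further: parasite growth measured after 72 hours of compound exposure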
[7] = HepG2 cell cytotoxicity, dose response, cytotoxicity control, plate reader, dry powder samples (AID 1159569); format: functional, cell-based;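 further: inhibitor potency with signal falling toward the positive control level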
[8] = P. falciparum Dd2 growth inhibitors, dose response, SYBR Green, cherry-picked samples (AID 1159567); format: functional, cell-based
[9] = P. falciparum Dd2 growth inhibitors, dose response, SYBR Green, dry powder samples (AID 1159566); format: functional, cell-based;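 further: potency for growth inhibition with lower SYBR green DNA signal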
[10] = HepG2 cell cytotoxicity, dose response, cytotoxicity control, cherry-picked samples (AID 1159577); format: functional, cell-based
[11] = Plasmodium falciparum Dd2 Sybr green parasite growth Measured in Cell-Based and Microorganism Combination System Using Plate Reader - 2153-01_Inhibitor_Dose_DryPowder_Activity_Set3.; format: functional
[12] = P. falciparum ATP4 D1247Y mutant growth inhibitors, dose response, NITD609-resistant line, SYBR Green, dry powder (AID 1159571); format: functional, cell-based;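 further: parasites synchronized at ring stage by sorbitol before testing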
[13] = target: Bifunctional protein GlmU (Mycobacterium tuberculosis, UniProt P9WMN3); assay: Inhibitors of Mycobacterial Glucosamine-1-phosphate acetyl transferase (GlmU). Secondary screen.; set-up: species or system Mycobacterium tuberculosis H37Rv
Bifunctional protein GlmU, sequence (P9WMN3 whole entry): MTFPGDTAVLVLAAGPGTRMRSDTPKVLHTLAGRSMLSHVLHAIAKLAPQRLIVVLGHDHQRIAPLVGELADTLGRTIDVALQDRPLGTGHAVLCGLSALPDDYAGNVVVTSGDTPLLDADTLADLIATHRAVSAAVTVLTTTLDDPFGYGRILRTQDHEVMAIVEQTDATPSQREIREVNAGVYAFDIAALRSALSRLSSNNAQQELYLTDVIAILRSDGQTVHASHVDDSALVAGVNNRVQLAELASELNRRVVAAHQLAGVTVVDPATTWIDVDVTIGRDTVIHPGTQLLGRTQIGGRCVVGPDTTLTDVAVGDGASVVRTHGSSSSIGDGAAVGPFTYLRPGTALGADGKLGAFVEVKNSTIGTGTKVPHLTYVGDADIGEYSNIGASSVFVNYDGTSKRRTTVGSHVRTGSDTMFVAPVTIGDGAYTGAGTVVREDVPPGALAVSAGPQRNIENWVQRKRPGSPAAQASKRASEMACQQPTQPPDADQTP

[14] = target: Induced myeloid leukemia cell differentiation protein Mcl-1 (Homo sapiens, UniProt Q07820); format: functional
Induced myeloid leukemia cell differentiation protein Mcl-1, sequence (Q07820 whole entry): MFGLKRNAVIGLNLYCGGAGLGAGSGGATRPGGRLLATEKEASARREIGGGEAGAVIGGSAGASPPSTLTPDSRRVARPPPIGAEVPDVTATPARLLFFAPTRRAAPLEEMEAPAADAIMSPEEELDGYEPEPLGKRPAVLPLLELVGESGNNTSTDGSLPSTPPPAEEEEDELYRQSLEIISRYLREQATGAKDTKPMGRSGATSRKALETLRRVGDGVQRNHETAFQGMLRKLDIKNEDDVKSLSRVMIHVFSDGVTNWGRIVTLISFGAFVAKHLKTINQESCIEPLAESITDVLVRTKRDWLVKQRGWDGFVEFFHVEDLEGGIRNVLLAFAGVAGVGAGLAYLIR

[15] = target: DNA (cytosine-5)-methyltransferase 1 (Homo sapiens, UniProt P26358); assay: DNMT1 methyltransferase inhibitors, confirmation, biochemical, fluorescent molecular beacon (AID 602386); format: functional
DNA (cytosine-5)-methyltransferase 1, sequence (P26358 whole entry): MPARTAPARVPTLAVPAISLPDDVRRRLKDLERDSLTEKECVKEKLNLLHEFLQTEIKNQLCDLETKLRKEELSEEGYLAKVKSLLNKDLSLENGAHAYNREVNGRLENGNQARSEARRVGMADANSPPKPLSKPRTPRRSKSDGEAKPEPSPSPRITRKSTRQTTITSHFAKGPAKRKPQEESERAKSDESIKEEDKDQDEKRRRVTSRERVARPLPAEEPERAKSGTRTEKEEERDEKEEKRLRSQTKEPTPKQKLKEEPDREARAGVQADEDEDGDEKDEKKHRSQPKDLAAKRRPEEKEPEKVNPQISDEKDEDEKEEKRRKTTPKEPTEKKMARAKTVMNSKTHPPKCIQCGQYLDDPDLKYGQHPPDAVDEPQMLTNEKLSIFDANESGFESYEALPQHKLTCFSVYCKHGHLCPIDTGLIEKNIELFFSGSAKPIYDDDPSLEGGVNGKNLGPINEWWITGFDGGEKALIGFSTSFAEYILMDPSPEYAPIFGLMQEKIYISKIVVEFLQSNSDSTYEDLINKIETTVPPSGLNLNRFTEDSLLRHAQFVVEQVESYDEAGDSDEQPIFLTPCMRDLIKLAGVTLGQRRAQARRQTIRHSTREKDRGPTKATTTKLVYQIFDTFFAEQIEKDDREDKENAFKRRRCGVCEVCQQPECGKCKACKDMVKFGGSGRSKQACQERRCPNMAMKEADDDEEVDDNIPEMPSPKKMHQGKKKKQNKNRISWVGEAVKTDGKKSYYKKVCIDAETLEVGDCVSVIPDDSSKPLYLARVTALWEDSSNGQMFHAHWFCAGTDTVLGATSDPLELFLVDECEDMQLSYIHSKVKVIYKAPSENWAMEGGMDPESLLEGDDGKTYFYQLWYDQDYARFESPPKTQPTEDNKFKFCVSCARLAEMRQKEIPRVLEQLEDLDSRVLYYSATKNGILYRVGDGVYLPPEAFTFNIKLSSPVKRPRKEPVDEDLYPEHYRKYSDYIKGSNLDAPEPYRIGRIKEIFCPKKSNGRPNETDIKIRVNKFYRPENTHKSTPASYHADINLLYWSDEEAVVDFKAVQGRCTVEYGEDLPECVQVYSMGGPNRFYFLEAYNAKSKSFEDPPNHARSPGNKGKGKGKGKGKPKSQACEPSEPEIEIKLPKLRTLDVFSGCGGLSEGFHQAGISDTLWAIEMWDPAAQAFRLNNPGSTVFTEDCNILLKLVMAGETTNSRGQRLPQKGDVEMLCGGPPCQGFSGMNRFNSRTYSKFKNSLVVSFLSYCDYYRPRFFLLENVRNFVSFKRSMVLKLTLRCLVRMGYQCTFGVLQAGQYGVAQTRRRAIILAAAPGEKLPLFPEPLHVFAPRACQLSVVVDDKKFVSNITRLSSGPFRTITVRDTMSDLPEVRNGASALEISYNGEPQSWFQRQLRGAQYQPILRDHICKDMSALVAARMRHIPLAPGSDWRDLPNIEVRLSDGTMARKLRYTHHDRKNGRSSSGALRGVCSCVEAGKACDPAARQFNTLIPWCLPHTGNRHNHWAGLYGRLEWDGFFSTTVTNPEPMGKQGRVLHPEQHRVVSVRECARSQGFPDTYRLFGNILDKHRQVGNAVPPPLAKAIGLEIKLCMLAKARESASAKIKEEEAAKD

[16] = target: 26S proteasome non-ATPase regulatory subunit 14 (Homo sapiens, UniProt O00487); assay: inhibition of proteasome subunit RPN11 – biochemical, fluorescence polarization, uHTS hits, confirmation (AID 602368); format: functional
26S proteasome non-ATPase regulatory subunit 14, sequence (O00487 whole entry): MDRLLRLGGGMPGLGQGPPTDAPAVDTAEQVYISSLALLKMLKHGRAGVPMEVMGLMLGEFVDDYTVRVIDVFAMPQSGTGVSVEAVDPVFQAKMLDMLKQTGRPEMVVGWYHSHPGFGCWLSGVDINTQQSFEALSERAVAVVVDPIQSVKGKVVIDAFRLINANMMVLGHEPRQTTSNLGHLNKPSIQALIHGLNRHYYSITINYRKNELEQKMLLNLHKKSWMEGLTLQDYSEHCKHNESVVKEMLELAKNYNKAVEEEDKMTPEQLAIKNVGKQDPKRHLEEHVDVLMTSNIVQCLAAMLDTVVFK

[17] = target: 72 kDa type IV collagenase (Homo sapiens, UniProt P08253); assay: Dose Response validation of uHTS RPN11 inhibitor hits using a MMP-2 Fluorescence assay.; format: functional
72 kDa type IV collagenase, sequence (P08253 whole entry): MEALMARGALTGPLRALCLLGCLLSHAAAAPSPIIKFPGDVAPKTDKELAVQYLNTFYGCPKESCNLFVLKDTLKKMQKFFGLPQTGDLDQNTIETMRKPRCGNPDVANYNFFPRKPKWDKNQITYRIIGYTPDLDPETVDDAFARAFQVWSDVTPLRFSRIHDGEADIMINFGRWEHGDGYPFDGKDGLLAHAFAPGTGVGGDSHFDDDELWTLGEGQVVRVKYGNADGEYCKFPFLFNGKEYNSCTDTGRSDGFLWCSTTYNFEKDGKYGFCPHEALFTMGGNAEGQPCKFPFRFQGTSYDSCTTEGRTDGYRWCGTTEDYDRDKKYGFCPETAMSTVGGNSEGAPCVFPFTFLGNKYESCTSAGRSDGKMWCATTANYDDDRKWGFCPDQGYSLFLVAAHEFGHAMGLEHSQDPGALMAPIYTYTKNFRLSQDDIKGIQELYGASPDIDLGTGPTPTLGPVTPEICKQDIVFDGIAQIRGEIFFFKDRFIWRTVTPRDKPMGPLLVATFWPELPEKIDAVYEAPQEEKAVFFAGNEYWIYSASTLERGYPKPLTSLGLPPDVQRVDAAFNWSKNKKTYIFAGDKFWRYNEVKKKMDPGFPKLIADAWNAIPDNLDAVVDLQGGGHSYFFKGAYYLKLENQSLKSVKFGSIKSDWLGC

Prothrombin = Prothrombin (Bos taurus, UniProt P00735); assay: thrombin inhibition, dose response, biochemical, fluorescence polarization, uHTS hits (AID 602369); format: functional
[18] = target: T3, Rac GTPase-activating protein 1 (Homo sapiens, UniProt Q9H0H5); assay: MgcRacGAP GTPase-activating activity inhibitors, confirmation, biochemical, ADP Hunter fluorescence, primary and confirmatory (AID 624330); format: functional
T3 sequence (Q9H0H5 whole entry): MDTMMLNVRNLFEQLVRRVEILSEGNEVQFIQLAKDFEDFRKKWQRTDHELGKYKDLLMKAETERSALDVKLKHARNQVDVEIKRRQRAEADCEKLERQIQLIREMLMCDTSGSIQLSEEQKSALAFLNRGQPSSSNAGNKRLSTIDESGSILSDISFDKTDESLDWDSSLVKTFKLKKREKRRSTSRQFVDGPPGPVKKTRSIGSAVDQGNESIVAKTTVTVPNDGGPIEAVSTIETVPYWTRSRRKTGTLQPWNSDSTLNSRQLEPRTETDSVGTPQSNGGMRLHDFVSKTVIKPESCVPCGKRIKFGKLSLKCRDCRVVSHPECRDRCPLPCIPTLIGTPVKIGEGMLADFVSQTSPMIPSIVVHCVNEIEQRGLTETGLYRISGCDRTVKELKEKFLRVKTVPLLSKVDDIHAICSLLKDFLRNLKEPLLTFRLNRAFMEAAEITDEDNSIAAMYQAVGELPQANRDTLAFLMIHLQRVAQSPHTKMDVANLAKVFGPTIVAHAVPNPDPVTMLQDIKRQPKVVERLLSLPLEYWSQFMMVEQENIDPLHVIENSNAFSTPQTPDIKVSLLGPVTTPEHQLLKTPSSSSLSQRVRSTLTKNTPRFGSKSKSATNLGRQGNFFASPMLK

[19] = target: T4, Histone-lysine N-methyltransferase NSD2 (Homo sapiens, UniProt O96028); format: biochemical
T4 sequence (O96028 whole entry): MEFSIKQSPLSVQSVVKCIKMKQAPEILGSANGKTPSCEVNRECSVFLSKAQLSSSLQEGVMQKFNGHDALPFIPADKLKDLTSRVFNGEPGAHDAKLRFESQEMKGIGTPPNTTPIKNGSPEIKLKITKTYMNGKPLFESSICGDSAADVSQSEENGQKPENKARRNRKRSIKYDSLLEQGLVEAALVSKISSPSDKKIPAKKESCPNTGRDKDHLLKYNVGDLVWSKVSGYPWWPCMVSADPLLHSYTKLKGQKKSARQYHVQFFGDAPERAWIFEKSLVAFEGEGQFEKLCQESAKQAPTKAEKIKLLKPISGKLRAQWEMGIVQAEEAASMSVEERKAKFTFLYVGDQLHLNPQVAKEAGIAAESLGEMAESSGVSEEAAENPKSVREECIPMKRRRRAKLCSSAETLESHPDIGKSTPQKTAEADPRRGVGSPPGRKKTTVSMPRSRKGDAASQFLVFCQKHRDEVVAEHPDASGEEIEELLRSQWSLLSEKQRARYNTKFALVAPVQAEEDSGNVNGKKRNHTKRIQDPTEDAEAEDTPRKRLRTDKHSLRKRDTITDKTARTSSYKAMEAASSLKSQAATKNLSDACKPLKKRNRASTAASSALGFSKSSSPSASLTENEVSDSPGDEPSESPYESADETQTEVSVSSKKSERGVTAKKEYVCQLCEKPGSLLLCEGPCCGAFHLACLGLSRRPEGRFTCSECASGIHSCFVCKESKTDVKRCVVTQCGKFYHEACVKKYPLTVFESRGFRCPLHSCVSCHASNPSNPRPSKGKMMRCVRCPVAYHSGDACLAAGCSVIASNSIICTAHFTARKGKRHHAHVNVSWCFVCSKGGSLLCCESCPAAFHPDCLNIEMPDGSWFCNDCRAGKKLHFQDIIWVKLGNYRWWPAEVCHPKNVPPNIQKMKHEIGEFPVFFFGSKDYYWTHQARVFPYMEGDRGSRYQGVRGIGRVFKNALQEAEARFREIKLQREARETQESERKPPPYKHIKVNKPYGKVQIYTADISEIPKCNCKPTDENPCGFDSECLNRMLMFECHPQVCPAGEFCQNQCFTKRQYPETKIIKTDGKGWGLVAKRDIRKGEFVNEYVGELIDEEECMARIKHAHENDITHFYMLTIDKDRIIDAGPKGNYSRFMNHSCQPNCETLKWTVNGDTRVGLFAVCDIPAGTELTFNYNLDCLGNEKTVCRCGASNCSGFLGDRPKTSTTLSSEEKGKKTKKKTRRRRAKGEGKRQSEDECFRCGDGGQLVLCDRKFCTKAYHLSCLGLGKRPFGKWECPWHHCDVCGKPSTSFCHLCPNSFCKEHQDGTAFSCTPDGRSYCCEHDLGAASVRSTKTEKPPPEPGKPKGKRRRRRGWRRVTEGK

In the case of `CC(C)(O)c1ccccc1CC[C@@H](SCC1(CC(=O)O)CC1)c1cccc(/C=C/c2ccc3ccc(Cl)cc3n2)c1` [MONTELUKAST SODIUM], the EC50 [1] was 1.19 µM (active), the EC50 (Streptokinase A) was 3.41 µM (active) and the EC50 (Streptococcus) was 7.96 µM (active). The IC50 [2] was 6.18 µM (active), the IC50 [3] was 20.6 µM (active) and the IC50 [4] was > 40 µM (inactive). The IC50 [5] was 20.7 µM (inactive).
For `CC(C)NC(=O)N1[C@H](C#N)[C@H](c2ccc(-c3ccc(F)cc3)cc2)[C@H]1CO`, the AC50 [6] was 18.2 µM (active), the AC50 [7] was 79.5 µM (active) and the AC50 [8] was 0.858 µM (active). For the same compound, the AC50 [9] was 0.442 µM (active), the AC50 [10] was 25.6 µM (active) and the AC50 [11] was 2.93 µM (active). The AC50 [12] was 0.469 µM (active).
In the case of `Cc1ccc(N2C(=O)NC(=O)/C(=C/c3ccoc3)C2=O)cc1`, the IC50 [13] was 66.5 µM (active), the IC50 [14] was 4.84 µM (active) and the IC50 [15] was 4 µM (active). The IC50 [16] was 6.76 µM (active), the IC50 [17] was 3.45 µM (active) and the IC50 (Prothrombin) was 84.7 µM (active). For the same compound, the IC50 [18] was 55.7 µM (active) and the AC50 [19] was 7.88 µM (active).
